One test deals with Carbonic anhydrase 9 (Homo sapiens, UniProt Q16790). As to the kind of experiment: Inhibition of human recombinant CA9 catalytic domain by stopped-flow CO2 hydration method.
In another test the target is Carbonic anhydrase 1 (Homo sapiens, UniProt P00915). As to the kind of experiment: Inhibition of full length human CA1 cytosolic isoform by stopped-flow CO2 hydration method.
Another test has as its target Carbonic anhydrase 2 (Homo sapiens, UniProt P00918).

Here are results for 19 compounds from ChEMBL document CHEMBL1287777 (Bioorg Med Chem Lett, 2010).

Carbonic anhydrase 1, sequence (P00915 whole entry, canonical isoform): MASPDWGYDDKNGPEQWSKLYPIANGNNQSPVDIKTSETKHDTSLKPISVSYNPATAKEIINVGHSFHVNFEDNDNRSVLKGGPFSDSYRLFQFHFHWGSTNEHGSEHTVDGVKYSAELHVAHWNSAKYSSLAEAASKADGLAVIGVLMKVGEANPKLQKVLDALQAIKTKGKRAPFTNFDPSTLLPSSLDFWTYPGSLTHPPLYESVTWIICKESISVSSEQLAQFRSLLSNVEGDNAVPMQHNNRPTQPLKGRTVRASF

Consider `CC(=O)c1c(OCCC23CC4CC(CC(C4)C2)C3)ccc2ccc(=O)oc12`, for which the values for the Ki at Carbonic anhydrase 9, on Carbonic anhydrase 1 and at Carbonic anhydrase 2 were 0.0639 µM, above 100 µM and above 100 µM, respectively.

For the compound `CCC(=O)c1cc2ccc(=O)oc2cc1O`, the Ki – broadly, the equilibrium dissociation constant of an inhibitor or competing ligand from its target – at Carbonic anhydrase 9 is 8.02 µM; at Carbonic anhydrase 2 it was above 100 µM.

For the compound `COc1cc2oc(=O)ccc2cc1C(C)=O`, the results for the Ki at Carbonic anhydrase 9, at Carbonic anhydrase 1 and at Carbonic anhydrase 2 were 7.8 µM, above 100 µM and above 100 µM, respectively.

For `CCCCOc1cc2oc(=O)ccc2cc1C(C)=O`, the Ki on Carbonic anhydrase 9, on Carbonic anhydrase 1 and on Carbonic anhydrase 2 was above 100 µM in each case.

As for `CCOc1cc2oc(=O)ccc2cc1C(C)=O`, the figures for the Ki on Carbonic anhydrase 9 and at Carbonic anhydrase 1 were 7.4 µM and above 100 µM, respectively.

Turning to `CC(=O)c1c(O)ccc2ccc(=O)oc12`, the Ki on Carbonic anhydrase 9 is 0.073 µM; at Carbonic anhydrase 1 it was above 100 µM; on Carbonic anhydrase 2 it was above 100 µM.

With `CCCOc1ccc2ccc(=O)oc2c1C(=O)CC`, the Ki at Carbonic anhydrase 1 and on Carbonic anhydrase 2 was above 100 µM throughout.

For the compound `CCOc1ccc2ccc(=O)oc2c1C(=O)CC`, the inhibitory constant (Ki) was 0.0467 µM on Carbonic anhydrase 9, above 100 µM at Carbonic anhydrase 1 and above 100 µM on Carbonic anhydrase 2.

Take `CCCCOc1ccc2ccc(=O)oc2c1C(C)=O`: the Ki at Carbonic anhydrase 1 and at Carbonic anhydrase 2 was above 100 µM in each case.

Turning to `CCCOc1cc2oc(=O)ccc2cc1C(C)=O`, the values for the Ki on Carbonic anhydrase 9, on Carbonic anhydrase 1 and at Carbonic anhydrase 2 were 7.58 µM, above 100 µM and above 100 µM, respectively.

For `CCCOc1ccc2ccc(=O)oc2c1C(C)=O`, the Ki at Carbonic anhydrase 9 is 0.0567 µM; on Carbonic anhydrase 1, above 100 µM; at Carbonic anhydrase 2, above 100 µM.

In the case of `CCC(=O)c1c(OC)ccc2ccc(=O)oc12`, the Ki on Carbonic anhydrase 9 was 0.0378 µM; on Carbonic anhydrase 1, above 100 µM; at Carbonic anhydrase 2 it was above 100 µM.

In the case of `CCC(=O)c1c(O)ccc2ccc(=O)oc12`, the Ki at Carbonic anhydrase 1 and on Carbonic anhydrase 2 was above 100 µM throughout.

As to `COc1ccc2ccc(=O)oc2c1C(C)=O`, the Ki at Carbonic anhydrase 9 is 0.0783 µM; at Carbonic anhydrase 1, above 100 µM; on Carbonic anhydrase 2, above 100 µM.

For the compound `CC(=O)c1c(OCc2ccccc2)ccc2ccc(=O)oc12`, the Ki on Carbonic anhydrase 9 was 0.0723 µM; at Carbonic anhydrase 1, above 100 µM.

Take `CCOc1ccc2ccc(=O)oc2c1C(C)=O`: the Ki on Carbonic anhydrase 9 is 0.0708 µM; at Carbonic anhydrase 1 it was above 100 µM; at Carbonic anhydrase 2, above 100 µM.

`CC(=O)c1cc2ccc(=O)oc2cc1OCc1ccccc1`: the Ki on Carbonic anhydrase 9 and on Carbonic anhydrase 1 was above 100 µM in each case.

As for `CC(=O)c1cc2ccc(=O)oc2cc1O`, the Ki on Carbonic anhydrase 2 is above 100 µM.

Regarding `CC(=O)c1cc2ccc(=O)oc2cc1OCCC12CC3CC(CC(C3)C1)C2`, the Ki at Carbonic anhydrase 9, at Carbonic anhydrase 1 and on Carbonic anhydrase 2 was above 100 µM in each case.
